Results as given in patent US7208572B2, “Leptin-related peptides” (Albany Medical College, priority 1998, dated 2007).
Marks after values point to notes of the source that are not given here. Square brackets hold non-standard residues; d marks the D form. Ends that are not written are not given here.

Columns and labels:
Format in all cases: in vivo, mouse
[1] = Truncated and D-amino acid-substituted analogs: body weight, food and water intake in female C57BL/6J ob/ob mice, 7 days; conditions: for Cumulative water intake / Cumulative food intake / Heavier (+) or lighter (−) than initial weight / Weight gain (+) or loss (−) / Cumulative food intake g/mouse3 g/mouse3 / Decrease(%) of cumulative food intake: 1 mg/day ip; for Cumulative food intake / Heavier (+) or lighter (−) than initial weight / Weight gain (+) or loss (−) / Increase (+) or decrease (−) of cumulative food intake: D-analog series; for Increase (+) or decrease (−) of cumulative water intake / Increase (+) or decrease (−) of cumulative food intake / Decrease(%) of cumulative food intake: vs vehicle; for Food intake relative to OB3: truncated analogs
Description: A. Housing: 6–8-week old homozygous female obese (ob/ob) and wild type (+1+) mice (C57BL/6J, Jackson Laboratory, Bar Harbor, Maine) were maintained in a temperature-controlled room (24° C.) in the Albany Medical College Animal Resources Facility under alternating 12-h light and dark periods (lights on 0700–1900 h). The animals were housed three per cage, and allowed food and water ad libitum for six days following their arrival.
Food and water remaining after 24 h was measured to the nearest 0.1 g and 0.1 ml, respectively, and the average amount consumed per mouse was calculated (mean±SEM, n=6). The mice were weighed once daily between 0900 and 1100 h on an Acculab V-333 electronic balance (Cole-Parmer, Vernon Hills, Ill.)
C. […] Control mice received 0.2 ml PBS (ip) only.
Female C7BL/6J ob/ob mice were given a single ip injection of vehicle (PBS, pH 7.2), LEP-(116–130) or truncated peptide (1 mg/200 ul PBS) for seven consecutive days. Daily changes in body weight compared to pretreatment weights of vehicle-injected control and peptide-treated mice were analyzed.

[2] = Blood glucose in female C57BL/6J ob/ob mice (Example 11); conditions: 1 mg/day ip
Description: D. Measurement of blood glucose: Blood was drawn from the tail vein of each mouse 2 h before the onset of the dark period at the beginning of the study, and after 2, 4, and 6 days of peptide treatment. The blood was applied to a test strip, and glucose levels were measured with a Glucometer Elite (Bayer, Elkhart, Ind.) glucose monitor.

[3] = Epitope mapping: body weight and food intake in female C57BL/6J ob/ob mice, 7 daily ip injections; conditions: 7 days; for Cumulative food intake / Percent heavier (+) or lighter (−) than initial weight / Weight gain (+) or loss (−): 1 mg/day ip
Description: Animal procedures. Feeding and weighing schedules, as well as peptide administration protocols, are as described in EXAMPLE 8, supra.
Statistical analysis. Changes in body weight and differences in food intake between peptide-treated and vehicle-injected control mice were analyzed by analysis of variance (ANOVA) and considered significant when P<0.05.
Female ob/ob mice (n=6 per group) were given a single ip injection of 0.2 ml of vehicle (PBS, pH 7.2) or leptin-related synthetic peptide amide in 0.2 ml PBS for 7 consecutive days. Daily changes in body weight compared to pretreatment weights in both vehicle-injected control and peptide-treated mice are shown in FIG. 4. […] There was no evidence of weight loss in response to peptide treatment.

[4] = 12-day ip study of body weight gain and food intake in female C57BL/6J ob/ob mice; conditions: 1 mg/day ip, 12 days
Description: The graphs show changes in body weight (expressed as percent of initial weight) and food intake (expressed as mg/gm body weight/mouse) for mice given vehicle or synthetic leptin-related peptide OB3 (1 mg/day, ip, 12 days).
Mice were injected with leptin-related synthetic peptide (1 mg/g body weight, ip) or vehicle daily for 12 consecutive days. Each bar represents mean±SEM food consumption per mouse (n=6 mice per group) after 3, 6, 9 and 12 days of treatment.
Each value represents mean±SEM change in body weight for a group of 6 mice.
Mice were injected with leptin-related synthetic peptide (1 mg/g body weight, ip) or vehicle for 12 consecutive days. Each bar and vertical line represents mean±food consumption per mouse (n=6 mice per group) after 3, 6, 9 and 12 days of treatment.

Row | Substance | Cumulative water intake ([1]; 7 days) | Cumulative food intake ([1]; 7 days) | Heavier (+) or lighter (−) than initial weight ([1]; 7 days) | Weight gain (+) or loss (−) ([1]; 7 days) | Food intake of D-analogs ([1]; 7 days) | Increase (+) or decrease (−) of cumulative water intake [1] | Increase (+) or decrease (−) of cumulative food intake [1] | Serum glucose level ([2]; Day 2) | Serum glucose level ([2]; Day 4) | Serum glucose level ([2]; Day 6) | also measured
1 | Ser-Cys-[D-Ser]-Leu-Pro-Gln-Thr (SC[dS]LPQT) [[D-Ser-3]-OB3] | 53.2 ± 1.1 ml/mouse | 45.9 ± 0.6 g/mouse | +13.2% | +4.7 ± 0.67 g | reduced food intake when compared to vehicle-injected control mice, but not to the level seen in mice receiving OB3 | −17.1% | −8.9% | 385.0 ± 10.0 mg/dL | 337.0 ± 43.6 mg/dL | 348.2 ± 14.0 mg/dL | 
2 | V Y Q Q V L T S L P S Q N V L (VYQQVLTSLPSQNVL) [LEP(81–95)] |  |  |  |  |  |  |  |  |  |  | Cumulative food intake [3]: 39.5 ± 1.1 gm/mouse; Percent heavier (+) or lighter (−) than initial weight [3]: +26.0%; Weight gain (+) or loss (−) [3]: +6.2 g
3 | S Q N V L Q I A N D L E N L R (SQNVLQIANDLENLR; not fully specified (N-terminus)) [LEP(91–105)] |  |  |  |  |  |  |  |  |  |  | Cumulative food intake [3]: 36.1 ± 0.7^b gm/mouse; Percent heavier (+) or lighter (−) than initial weight [3]: +18.6%; Weight gain (+) or loss (−) [3]: +5.2 g; Food intake vs vehicle [3]: significantly (P=0.01) less than vehicle-injected control mice
4 | Ser-Cys-Ser-Leu-Pro-[D-Gln]-Thr (SCSLP[dQ]T) [[D-Gln-6]-OB3] | 57.1 ± 1.0 ml/mouse | 43.5 ± 0.9 g/mouse | +4.6% | +2.1 ± 0.14 g | reduced food intake when compared to vehicle-injected control mice, but not to the level seen in mice receiving OB3 | −11.1% | −13.7% | 394.0 ± 45.4 mg/dL | 354.5 ± 17.3 mg/dL | 358.0 ± 28.1 mg/dL | 
5 | SCSLPQTSG [LEP-(116–124)] |  |  |  |  |  |  |  |  |  |  | Cumulative food intake g/mouse3 g/mouse3 ([1]; 7 days): 34.6 ± 0.9 g/mouse; Decrease(%) of cumulative food intake ([1]; 7 days): 22.6%; Food intake relative to OB3 ([1]; 7 days): equivalent to that of mice treated with OB3
6 | Ser-Cys-Ser-Leu-Pro (SCSLP; printed: Ser-Cys-Ser-Leu-Pro) [LEP-(116–120)] |  |  |  |  |  |  |  |  |  |  | Cumulative food intake g/mouse3 g/mouse3 ([1]; 7 days): 42.4 ± 1.2 g/mouse; Decrease(%) of cumulative food intake ([1]; 7 days): 6.2%; Food intake less than vehicle-injected control mice ([1]; 7 days): 6.2%; Body weight gain and food intake vs vehicle [4]: did not approximate the activity observed with LEP(116–130)
7 | [D-Ser][D-Cys][D-Ser][D-Leu][D-Pro][D-Gln][D-Thr] [[D]-OB3] | 67.5 ± 2.2 ml/mouse | 52.7 ± 1.0 g/mouse | +10.0% | +4.0 ± 0.36 g | slight increase in food consumption | +5.1% | +4.6% | 325.7 ± 31.5 mg/dL | 405.5 ± 35.8 mg/dL | 401.8 ± 25.0 mg/dL | 
8 | D F I P G L H P I L S L S K M (DFIPGLHPILSLSKM) [LEP(61–75)] |  |  |  |  |  |  |  |  |  |  | Cumulative food intake [3]: 44.6 ± 2.3 gm/mouse; Percent heavier (+) or lighter (−) than initial weight [3]: +24.0%; Weight gain (+) or loss (−) [3]: +5.9 g
9 | SCSLPQ [LEP-(116–121)] |  |  |  |  |  |  |  |  |  |  | Cumulative food intake g/mouse3 g/mouse3 ([1]; 7 days): 41.6 ± 1.4 g/mouse; Decrease(%) of cumulative food intake ([1]; 7 days): 6.8%; Food intake less than vehicle-injected control mice ([1]; 7 days): 6.8%
10 | S L S K M D Q T L A V Y Q Q V (SLSKMDQTLAVYQQV) [LEP(71–85)] |  |  |  |  |  |  |  |  |  |  | Cumulative food intake [3]: 35.5 ± 1.1^b gm/mouse; Percent heavier (+) or lighter (−) than initial weight [3]: +20.0%; Weight gain (+) or loss (−) [3]: +5.0 g; Food intake vs vehicle [3]: significantly (P=0.01) less than vehicle-injected control mice
11 | Ser-Cys-Ser-Leu-Pro-Gln-[D-Thr] (SCSLPQ[dT]; not fully specified; printed as Ser-Cys-Ser-Leu-Pro-Gln-[D-Thr]) [[D-Thr-7]-OB3] | 68.3 ± 2.7 ml/mouse | 56.1 ± 0.6 g/mouse | +10.6% | +4.6 ± 0.34 g | slight increase in food consumption | +6.4% | +11.3% | 384.2 ± 18.1 mg/dL | 405.5 ± 16.0 mg/dL | 375.7 ± 17.8 mg/dL | 
12 | SCSL[dP]QT [[D-Pro-5]-OB3] | 32.2 ± 0.8^b ml/mouse | 36.0 ± 12^b g/mouse | +2.4% | +1.2 ± 0.13^b g | equivalent to that of mice receiving OB3 | −49.8% | −28.6% | 272.0 ± 22.2^b mg/dl | 213.0 ± 28.4^a mg/dl | 202.8 ± 31.4^a mg/dl | Water consumption relative to OB3 ([1]; 7 days): significantly less than that seen in mice receiving OB3
13 | [D-Ser]-Cys-Ser-Leu-Pro-Gln-Thr ([dS]CSLPQT) [[D-Ser-1]-OB3] | 58.0 ± 1.8 ml/mouse | 44.4 ± 1.4 g/mouse | +4.6% | +3.3 ± 0.18 g | reduced food intake when compared to vehicle-injected control mice, but not to the level seen in mice receiving OB3 | −9.7% | −11.9% | 356.0 ± 21.2 mg/dL | 360.1 ± 25.1 mg/dL | 287.0 ± 24.4 mg/dL | 
14 | SCSLPQTS [LEP-(116–123)] |  |  |  |  |  |  |  |  |  |  | Cumulative food intake g/mouse3 g/mouse3 ([1]; 7 days): 34.3 ± 10 g/mouse; Decrease(%) of cumulative food intake ([1]; 7 days): 23.3%; Food intake relative to OB3 ([1]; 7 days): equivalent to that of mice treated with OB3
15 | S[dC]SLPQT [[D-Cys-2]-OB3] | 62.7 ± 1.7 ml/mouse | 47.6 ± 0.8 g/mouse | +12.8% | +4.8 ± 0.11 g | reduced food intake when compared to vehicle-injected control mice, but not to the level seen in mice receiving OB3 | −2.3% | −5.6% | 298.0 ± 27.9 mg/dL | 403.0 ± 41.1 mg/dL | 346.2 ± 31.7 mg/dL | 
